The source of these data is patent publication US8669088B2, “Enzyme associated with equol synthesis” (Otsuka Pharmaceutical Co., Ltd., priority 2007, dated 2014).

Experiment [1] concerns disrupted cell material of Lactococcus 20-92 strain. Kind of experiment: Enzyme reaction with disrupted cell material of Lactococcus 20-92 strain as enzyme source (Example B1). In kind it is biochemical. Conditions: 10 μg/mL substrate; 2 mM NADPH, 2 mM NADH; 37° C., 2 hours; HPLC (FIG. 10). As for the experimental part: The Lactococcus 20-92 strain cells preserved at −80° C. were quickly thawed. The cells were suspended by tapping, and centrifuged at 4° C. (8,000 rpm×5 min) using a centrifuge VC-960 (Taitec). After removing the supernatant, 0.1 M potassium phosphate buffer/1 mM PMSF (phenylmethanesulfonyl fluoride)/2 mM DTT (dithiothreitol)/5 mM sodium hydrosulfite (pH 7.0) were added to obtain a cell suspension. The cell suspension was placed in a 2 ml tube prepared to include zirconia-silica beads (about 0.8 mL, 0.1 mm, 1 lb; Wakenyaku Co., Ltd.), and the tube was charged with 0.1 M potassium phosphate solution/1 mM PMSF/2 mM DTT/5 mM sodium hydrosulfite (pH 7.0) to fill the tube almost completely. For disruption, the tube was closed and kept on ice, where a cycle of 6,500 rpm×20 sec centrifugation and ice-cooling was repeated four times using FastPrep®-FP100A (Thermo Electron Corporation). The resulting disrupted cell material was used as an enzyme source in an enzyme reaction.
A 1 mL enzyme reaction mixture of the composition below, containing 0.1 ml of the disrupted cell material obtained in (1) was prepared, and the mixture was incubated at 37° C. for 2 hours. After incubation, 3 mL of ethyl acetate was added to the resulting enzyme reaction product for extraction. The product was dried to prepare a sample for HPLC analysis. […]

Another experiment concerns Lactococcus 20-92 strain. Kind of experiment: Equol biosynthetic activity of bacterial cell from tetrahydrodaidzein (Example C1). In kind it is cell-based. To be noted: 10 μg/mL in medium; 37° C., 18 hours, anaerobic; HPLC (FIG. 20). As for the experimental part: A Lactococcus 20-92 strain (FERM BP-10036) was inoculated in a tetrahydrodaidzein-containing amplification liquid medium (a modified GAM bouillon medium (NISSUI PHARMACEUTICAL CO., LTD.) to which cis- or trans-tetrahydrodaidzein (organically-synthesized by Otsuka Pharmaceutical Co., Ltd.: see Reference Example B1) was added in an amount of 10 μg/mL), and the culture was incubated at 37° C. for 18 hours under anaerobic conditions (using BBL Gas Pack systems). After incubation, 1 mL of the culture was immediately placed in a glass centrifuge tube with cap, and 3 mL of ethyl acetate was added thereto for extraction. The product was dried to prepare a sample for HPLC analysis. As the standard solution for HPLC analysis, a mixed solution of daidzein (2 μg/mL; Funakoshi Corporation), equol (2 μg/mL; Funakoshi Corporation), dihydrodaidzein (2 μg/mL; Trend Research Chemicals Inc.), cis-tetrahydrodaidzein and trans-tetrahydrodaidzein (2 μg/mL; both chemically-synthesized by Otsuka Pharmaceutical Co., Ltd.) was used.

In another experiment the test system is daidzein. The experiment in a line: Dihydrodaidzein biosynthesis activity in centrifuged supernatant of disrupted cell material and coenzyme dependency (Example A1). In kind it is biochemical, Lactococcus 20-92 strain. To be noted: supernatant of disrupted cells; 37° C., 2 hour; HPLC (FIG. 1). As for the experimental part: The frozen cells (67 mL bottle×2) were thawed, and centrifuged at 4° C. at 8,000 rpm for 10 minutes. The pellet was used in the test below. First, the pellet was suspended in 2 ml of a 0.1 M phosphate-potassium solution containing 1 mM PMSF (Wako Pure Chemical Industries, Ltd.), 2 mM DTT (Wako Pure Chemical Industries, Ltd.) and 5 mM sodium hydrosulfite (Wako Pure Chemical Industries, Ltd.). The suspension was supplied to two 2 ml tubes with screw caps (Assist) and pre-supplemented with […] zirconia/silica beads (BioSpec Products, Inc.). The cells were disrupted using FastPrep® FP100A (Thermo ELECTRON CORPORATION) (6500 rpm, 10 seconds, ice cooling×8). The resulting liquid was centrifuged to obtain supernatant. The suspension of disrupted cell was centrifuged at about 10,000 rpm at 4° C. for 10 minutes to obtain a supernatant, which was then diluted to 4.5 mL with 0.1 M potassium phosphate solution containing 1 mM PMSF, 2 mM DTT and 5 mM sodium hydrosulfite. This was used as an enzyme source.
An enzyme reaction mixture of the composition below was prepared, and the mixture was incubated at 37° C. for 2 hour. After incubation, 3 mL of ethyl acetate was added to the enzyme reaction mixture for extraction. After drying, the extract was dissolved by the mobile phase (eluent). The dissolved product was analyzed by HPLC. […]

The subject of another experiment is dihydrodaidzein. The experiment in a line: Tetrahydrodaidzein biosynthesis activity in centrifuged supernatant of disrupted cell material and NADH or NADPH dependency (Example B2). Format: biochemical, Lactococcus 20-92 strain. Conditions: centrifuged supernatant of disrupted cells; 37° C., 2 hours; HPLC (FIG. 11). As for the experimental part:
The frozen cells were thawed and centrifuged at 4° C. for 15 minutes (5,000×G). The pellet was used in the test below. First, the pellet (wet weight 2.7 g) was suspended in 10 ml of a 0.1 M phosphate-potassium solution containing 1 mM PMSF and 5 mM sodium hydrosulfite. After preheating at 37° C. for 5 minutes, lysozyme was added in an amount of 100 mg per gram of the pellet (wet weight) to cause a reaction at 37° C. for 1.5 hours. Then, an equivalent amount of 0.1 M dipotassium phosphate solution was added to the reaction mixture, and the mixture was vigorously agitated with a vortex mixer after adding zirconia-silica beads (3 ml). The cells were then disrupted with a sonicator (Branson Sonifier Cell Disruptor 200) (3 cycles of a 5-minute sonication and a 2-minute rest). The disrupted cell suspension was centrifuged at about 10,000×G for 15 minutes to obtain a supernatant, which was then used as an enzyme source. An enzyme reaction mixture of the composition below was prepared, and was incubated at 37° C. for 2 hours. After incubation, 5 mL of ethyl acetate was added to the enzyme reaction product for extraction. Then, the product was dried to prepare a sample for HPLC analysis. [table]

Experiment [2] deals with dihydrodaidzein synthesis enzyme gene. Kind of experiment: Induction of expression of dihydrodaidzein synthesis enzyme gene by daidzein, RT-PCR (Example A7). In kind it is cell-based, Lactococcus 20-92 strain. Conditions: 10 mg/L daidzein in modified GAM broth, eight hours, 37° C., anaerobic; RT-PCR (FIG. 6). As for the experimental part: Sealed Lactococcus 20-92 strain kept at 4° C. was incubated for eight hours in a modified GAM broth culture medium, that contains 10 mg/L daidzein (Funakoshi Co., Ltd.) or no daidzein, at 37° C. under an anaerobic condition. 25 mL of the culture solution was transferred to a 50 mL tube, and centrifuged for ten minutes at 3500 rpm, 4° C. The culture medium was removed by decantation and cells were collected. The collected cells were immediately frozen by liquid nitrogen. Then, the entire RNA was extracted and purified using 1 mL of TRIzol solution (Invitrogen) according to the instruction. The purified entire RNA was processed by DNase I (Invitrogen) to remove the genome DNA, and used for synthesis of first-strand cDNA.
From 2 μg of the entire RNA thus processed by DNaseI, the first-strand cDNA (reverse transcription) was synthesized using SuperScript® First-Strand Synthesis System for RT-PCR (Invitrogen). The synthesis of the first-strand cDNA was carried out using Random Hexamer mix as an extension primer according to the instruction. […] The final reaction liquid was used as a template for RT-PCR.
The dihydrodaidzein synthesis enzyme gene was amplified through RT-PCR using the four final reaction products as detailed in (2) of the present Example as templates. The expression amounts were compared with each other. […]

As to `Oc1ccc(C2COc3cc(O)ccc3C2O)cc1` (stereo not drawn) [cis-tetrahydrodaidzein], the “production of equol from tetrahydrodaidzein by enzyme reaction” value in experiment [1] was “equol was produced”. The “equol biosynthesis from tetrahydrodaidzein by bacterial culture” value in the experiment on Lactococcus 20-92 strain is “activity to biosynthesize equol”. As to `NC(=O)C1=CN([C@@H]2O[C@H](COP(=O)(O)OP(=O)(O)OC[C@H]3O[C@@H](n4cnc5c(N)ncnc54)[C@H](O)[C@@H]3O)[C@@H](O)[C@H]2O)C=CC1` [NADH], in the experiment with daidzein, the “coenzyme dependency of the conversion of daidzein into dihydrodaidzein” value is given as “dependent”. Also, the “coenzyme dependency of the conversion of dihydrodaidzein into tetrahydrodaidzein” value with dihydrodaidzein is “dependent”. Take `O=c1c(-c2ccc(O)cc2)coc2cc(O)ccc12` [daidzein, 4′,7-dihydroxy isoflavone]: the “expression of mRNA of dihydrodaidzein synthesis enzyme gene” value in experiment [2] is “induced the expression of mRNA”.
